Experimental data from patent publication US6455550B1, “N-alkanoylphenylalanine derivatives” (Hoffmann-La Roche Inc., priority 1997, dated 2002).
Read-outs that look alike come from different tables or passages of the source.

Assays:
[1] = target: T1, cell-surface VLA-4 (α4β1 integrin) on Ramos cells binding to immobilized VCAM-1 (Homo sapiens, UniProt P05556+P13612); assay: Ramos (VLA-4)/VCAM-1 Cell-Based Screening Assay (cell adhesion)
T1 construct: Ramos cells bearing cell-surface VLA-4; endogenous in cells; host or cells: Ramos cells (VLA-4); VCAM-1 purified from CHO cell culture media
T1 sequence (P13612 34-1032): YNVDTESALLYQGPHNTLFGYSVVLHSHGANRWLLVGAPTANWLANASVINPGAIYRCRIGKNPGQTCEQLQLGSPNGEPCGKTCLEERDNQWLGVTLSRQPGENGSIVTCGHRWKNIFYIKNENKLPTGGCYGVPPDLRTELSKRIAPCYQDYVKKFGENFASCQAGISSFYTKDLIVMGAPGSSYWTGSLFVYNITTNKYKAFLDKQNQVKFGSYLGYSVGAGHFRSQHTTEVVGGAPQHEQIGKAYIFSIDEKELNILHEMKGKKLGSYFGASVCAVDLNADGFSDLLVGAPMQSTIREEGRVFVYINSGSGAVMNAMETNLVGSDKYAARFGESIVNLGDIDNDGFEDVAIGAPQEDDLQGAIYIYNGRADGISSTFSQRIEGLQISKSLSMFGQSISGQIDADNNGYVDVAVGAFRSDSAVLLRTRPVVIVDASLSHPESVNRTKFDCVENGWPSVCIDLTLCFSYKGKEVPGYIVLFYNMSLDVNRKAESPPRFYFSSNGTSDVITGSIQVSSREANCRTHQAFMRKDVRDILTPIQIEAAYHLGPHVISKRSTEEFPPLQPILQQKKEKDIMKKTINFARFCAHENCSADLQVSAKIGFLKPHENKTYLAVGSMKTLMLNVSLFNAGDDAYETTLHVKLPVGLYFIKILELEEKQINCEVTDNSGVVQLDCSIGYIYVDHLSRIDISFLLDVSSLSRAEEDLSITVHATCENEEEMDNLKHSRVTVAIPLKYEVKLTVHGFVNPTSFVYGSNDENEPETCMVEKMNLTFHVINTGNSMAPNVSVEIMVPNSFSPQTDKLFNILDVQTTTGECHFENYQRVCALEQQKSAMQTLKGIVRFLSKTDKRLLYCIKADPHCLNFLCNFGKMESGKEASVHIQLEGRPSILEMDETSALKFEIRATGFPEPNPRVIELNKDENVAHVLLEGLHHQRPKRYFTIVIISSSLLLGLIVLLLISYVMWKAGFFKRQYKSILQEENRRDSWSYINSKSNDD
T1 sequence (P05556 21-798): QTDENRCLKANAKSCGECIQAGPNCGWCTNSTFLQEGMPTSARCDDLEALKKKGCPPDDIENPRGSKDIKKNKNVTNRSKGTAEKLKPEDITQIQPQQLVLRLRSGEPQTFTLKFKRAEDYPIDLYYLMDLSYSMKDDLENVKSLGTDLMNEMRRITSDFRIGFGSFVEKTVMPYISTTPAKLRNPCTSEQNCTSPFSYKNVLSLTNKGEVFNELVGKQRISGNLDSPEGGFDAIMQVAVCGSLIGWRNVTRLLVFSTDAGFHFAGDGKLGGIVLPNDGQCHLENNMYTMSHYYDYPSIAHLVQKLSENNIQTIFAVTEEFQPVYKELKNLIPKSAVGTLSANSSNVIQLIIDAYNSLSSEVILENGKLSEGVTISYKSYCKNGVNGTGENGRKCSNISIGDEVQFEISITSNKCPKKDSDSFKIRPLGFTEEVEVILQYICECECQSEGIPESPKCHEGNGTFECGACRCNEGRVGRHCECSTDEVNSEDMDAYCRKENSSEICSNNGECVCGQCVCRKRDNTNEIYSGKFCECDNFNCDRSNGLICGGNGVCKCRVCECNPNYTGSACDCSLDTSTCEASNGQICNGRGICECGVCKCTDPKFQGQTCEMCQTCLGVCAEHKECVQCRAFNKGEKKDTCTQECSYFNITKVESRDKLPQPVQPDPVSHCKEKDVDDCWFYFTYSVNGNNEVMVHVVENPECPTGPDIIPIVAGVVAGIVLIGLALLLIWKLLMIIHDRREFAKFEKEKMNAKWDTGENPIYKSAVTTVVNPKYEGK
Description: Calcein-AM was purchased from Molecular Probes Inc.
VLA-4 (α4β1 integrin) antagonist activity, defined as ability to compete with cell-surface VLA-4 for binding to immobilized VCAM-1, was quantitated using a Ramos-VCAM-1 cell adhesion assay. Ramos cells bearing cell-surface VLA-4, were labeled with a fluorescent dye (Calcein-AM) and allowed to bind VCAM-1 in the presence or absence of test compounds.
Initially, this entailed coating 96 well plates (Nunc Maxisorp) with recombinant human VCAM-1 (100 ng in 100 μl PBS), sealing each plate and allowing the plates to stand at 4° C for Å18 hr. The VCAM-coated plates were subsequently washed twice with 0.05% Tween-20 in PBS, and then blocked for 1hr (room temperature) with 200 μl of Blocking Buffer (1% BSA/0.02% thimerosal) to reduce non-specific binding. Following the incubation with Blocking Buffer, plates were inverted, blotted and the remaining buffer aspirated. Each plate was then washed with 300 μl PBS, inverted and the remaining PBS aspirated.
Test compounds were dissolved in 100% DMSO and then diluted 1:25 in VCAM Cell Adhesion Assay Buffer (4 mM CaCl2, 4 mM MgCl2 in 50 mM TRIS-HCl, pH 7.5) (final DMSO=4%). […] 100 μl/well of each dilution was added to the VCAM-coated plates, followed by 100 μl of Ramos cells (200,000 cells/well in 1% BSA/PBS). […] Plates were inverted to remove non-adherent cells, blotted and 300 μl/well PBS added. Plates were again inverted, blotted and the remaining buffer gently aspirated. 100 μl Lysis Buffer (0.1% SDS in 50 mM TRIS-HCl, pH 8.5) was added to each well and agitated for 2 min on a rotary shaking platform.

[2] = target: T2, VLA-4 (α4β1 integrin) binding to immobilized VCAM-1 (Homo sapiens, UniProt P05556+P13612); assay: VLA-4/VCAM-1 Screening Assay (solid-phase, dual antibody ELISA)
T2 construct: followed by 10 μl of Ramos cell-derived VLA-4; endogenous in cells; host or cells: Ramos cells (VLA-4 preparation derived from the cells)
T2 sequence (P13612 34-1032): as the sequence (P13612 34-1032) above
T2 sequence (P05556 21-798): as the sequence (P05556 21-798) above
Method: VLA-4 antagonist activity, defined as ability to compete for binding to immobilized VCAM-1 was quantitated using a solid-phase, dual antibody ELISA. VLA-4 (α4β1 integrin) bound to VCAM-1 was detected by a complex of anti-integrin β1 antibody: HRP-conjugated anti-mouse IgG: chromogenic substrate (K-Blue). Initially, this entailed coating 96 well plates (Nunc Maxisorp) with recombinant human VCAM-1 (0.4 μg in 100 μl PBS), sealing each plate and then allowing the plates to stand at 4° C for Å18 hr. […] On the day of assay, all plates were washed twice with VCAM Assay Buffer (200 μl/well of 50 mM Tris-HCl, 100 mM NaCl, 1 mM MnCl2, 0.05% Tween 20; pH 7.4). Test compounds were dissolved in 100% DMSO and then diluted 1:20 in VCAM Assay Buffer supplemented with 1 mg/mL BSA (i.e., final DMSO=5%). […] 100 μl per well of each dilution was added to the VCAM-coated plates, followed by 10 μl of Ramos cell-derived VLA-4. These plates were sequentially mixed on a platform shaker for 1 min, incubated for 2 hr at 37° C. and then washed four times with 200 μl/well VCAM Assay Buffer. 100 μl of mouse anti-human integrin β1 antibody was added to each well (0.6 μg/mL in VCAM Assay Buffer+1 mg/mL BSA) and allowed to incubate for 1 hr at 37° C. At the conclusion of this incubation period, all plates were washed four times with VCAM Assay Buffer (200 μl/well). A corresponding second antibody, HRP-conjugated goat anti-mouse IgG (100 μl per well @1:800 dilution in VCAM Assay Buffer+1 mg/mL BSA), was then added to each well, followed by a 1 hr incubation at room temperature and concluded by three washes (200 μl/well) with VCAM Assay Buffer. Color development was initiated by addition of 100 μl K-Blue per well (15 min incubation, room temp) and terminated by addition of 100 μl Red Stop Buffer per well. […] Results were calculated as % inhibition of total binding (i.e., VLA-4+VCAM-1 in the absence of test compound).

[3] = Calcein-AM labeled Ramos cells, VCAM-1 coated plates, 45 min at room temperature, read-out: IC50 in Ramos Cell Based Assay
[4] = IC50 nM, Ramos cell-derived VLA-4, recombinant human VCAM-1 coated plates, 2 hr at 37° C.
[5] = Ramos cell-derived VLA-4, recombinant human VCAM-1 coated plates, 2 hr at 37° C., read-out: IC50
[6] = IC50 in Ramos Cell Based Assay (nM), Calcein-AM labeled Ramos cells, VCAM-1 coated plates, 45 min at room temperature

Row | SMILES | IC50 [1, 3] [nM] | IC50 [2, 4] [nM] | IC50 [2, 5] [nM] | IC50 [1, 6] [nM] | other results
1 | Cn1nnnc1-c1ccc(CC2(C(=O)N[C@@H](Cc3ccc(NC(=O)c4c(Cl)cccc4Cl)cc3)C(=O)O)CCCC2)cc1 [Example 55] | 18.5 | 0.47 |  |  | 
2 | COC(=O)CCC(=O)NCCC1(C(=O)N[C@@H](Cc2ccc(NC(=O)c3c(Cl)cccc3Cl)cc2)C(=O)O)CCCC1 [Example 163] | 85 |  | 2.4 |  | 
3 | CC(C)(C)OC(=O)NCC(=O)NCCC1(C(=O)N[C@@H](Cc2ccc(NC(=O)c3c(Cl)cccc3Cl)cc2)C(=O)O)CCCC1 [Example 216, 4-[[(2,6-dichlorophenyl)carbonyl]amino]-N-[[1-[2-[[2-[[(1,1-dimethylethoxy)carbonyl]amino]-1-oxoethyl]amino]ethyl]cyclopentyl]carbonyl]-L-phenylalanine] | 356 |  | 2.9 |  | 
4 | CC(C)(C)OC(=O)NCCC1(C(=O)N[C@@H](Cc2ccc(NC(=O)c3c(Cl)cccc3Cl)cc2)C(=O)O)CCCC1 [Example 254] | 360 |  | 2 |  | 
5 | NCC(=O)NCCC1(C(=O)N[C@@H](Cc2ccc(NC(=O)c3c(Cl)cccc3Cl)cc2)C(=O)O)CCCC1 [Example 217, 4-[[(2,6-dichlorophenyl)carbonyl]amino]-N-[[1-[2-[(2-amino-1-oxoethyl)amino]ethyl]yclopentyl]carbonyl]-L-phenylalanine] | 211 |  | 2 |  | 
6 | CNC(=O)NCCC1(C(=O)N[C@@H](Cc2ccc(NC(=O)c3c(Cl)cccc3Cl)cc2)C(=O)O)CCCC1 [Example 187, 4-[[(2,6-Dichlorophenyl)carbonyl]amino]-N-[[1-[2-[[(methylamino)carbonyl]amino]ethyl]cyclopentyl]carbonyl]-L-phenylalanine] | 5.7 |  | 0.26 |  | 
7 | Cc1cc([N+](=O)[O-])ccc1C(=O)Nc1ccc(C[C@H](NC(=O)C2(C)CC2(Cl)Cl)C(=O)O)cc1 (some centres unmarked) [Example 100] | 54.5 |  | 0.26 |  | 
8 | C=CCCC1(C(=O)N[C@@H](Cc2ccc(NC(=O)c3c(Cl)cccc3Cl)cc2)C(=O)O)CCCC1 [Example 271] | 67 | 0.55 |  |  | 
9 | CCCCC1(C(=O)N[C@@H](Cc2ccc(NC(=O)c3c(Cl)cccc3Cl)cc2)C(=O)O)CCCC1 [Example 270] |  | 1.1 |  | 150 | 
10 | C/N=C(\S)NCCC1(C(=O)N[C@@H](Cc2ccc(NC(=O)c3c(Cl)cccc3Cl)cc2)C(=O)O)CCCC1 [Example 192] |  | 0.14 |  | 22 | 
11 | O=C(Nc1ccc(C[C@H](NC(=O)C2(CCNC(=O)C3CCCN3C(=O)C(F)(F)F)CCCC2)C(=O)O)cc1)c1c(Cl)cccc1Cl (some centres unmarked) [Example 159] | 313 |  | 6.4 |  | 
12 | CSCCC1(C(=O)N[C@@H](Cc2ccc(NC(=O)c3c(Cl)cccc3Cl)cc2)C(=O)O)CCCC1 [Example 249] |  | 0.29 |  | 62 | 
13 | CC(=O)N(C)CCC1(C(=O)N[C@@H](Cc2ccc(NC(=O)c3c(Cl)cccc3Cl)cc2)C(=O)O)CCCC1 [Example 200, 4-[[(2,6-Dichlorophenyl)carbonyl]amino]-N-[[1-[2-[(acetyl)(methyl)amino]ethyl]cyclopentyl]carbonyl]-L-phenylalanine] | 19 |  | 0.81 |  | 
14 | COc1ccc(C(=O)NCCC2(C(=O)N[C@@H](Cc3ccc(NC(=O)c4c(Cl)cccc4Cl)cc3)C(=O)O)CCCC2)cc1 [Example 257] |  | 40 |  | 635 | 
15 | CC(=O)NCCCCC1(C(=O)N[C@@H](Cc2ccc(NC(=O)c3c(Cl)cccc3Cl)cc2)C(=O)O)CCCC1 [Example 259] |  | 3.6 |  | 129 | 
16 | [N-]=[N+]=NCCC1(C(=O)N[C@@H](Cc2ccc(NC(=O)c3c(Cl)cccc3Cl)cc2)C(=O)O)CCCC1 [Example 58] |  |  | 0.58 | 47 | 

Row | SMILES | IC50 [1, 3] [nM] | IC50 [2, 4] [nM] | IC50 [2, 5] [nM] | IC50 [1, 6] [nM] | other results
17 | COC(=O)N(C)CCC1(C(=O)N[C@@H](Cc2ccc(NC(=O)c3c(Cl)cccc3Cl)cc2)C(=O)O)CCCC1 [Example 202, 4-[[(2,6-Dichlorophenyl)carbonyl]amino]-N-[[1-[2-[(methoxycarbonyl)(methyl)amino]ethyl]cyclopentyl]carbonyl]-L-phenylalanine] | 31 |  | 1 |  | 
18 | NCCC1(C(=O)N[C@@H](Cc2ccc(NC(=O)c3c(Cl)cccc3Cl)cc2)C(=O)O)CCCC1 [Example 252] |  | 5.1 |  | 228 | 
19 | COc1ccc(CC2(C(=O)N[C@@H](Cc3ccc(NC(=O)c4c(Cl)cccc4Cl)cc3)C(=O)O)CCCC2)cc1 [Example 95] | 34.5 |  | 0.69 |  | 
20 | N#CCC1(C(=O)N[C@@H](Cc2ccc(NC(=O)c3c(Cl)cccc3Cl)cc2)C(=O)O)CCCC1 [Example 272] |  |  | 1 | 96 | 
21 | O=C(NCCC1(C(=O)N[C@@H](Cc2ccc(NC(=O)c3c(Cl)cccc3Cl)cc2)C(=O)O)CCCC1)c1cccc(C(F)(F)F)c1 [Example 258] |  | 14 |  | 1030 | 
22 | COCC(=O)NCCC1(C(=O)N[C@@H](Cc2ccc(NC(=O)c3c(Cl)cccc3Cl)cc2)C(=O)O)CCCC1 [Example 162] | 23 |  | 1.2 |  | 
23 | O=C(NCCC1(C(=O)N[C@@H](Cc2ccc(NC(=O)c3c(Cl)cccc3Cl)cc2)C(=O)O)CCCC1)c1ccno1 [Example 158] | 124 |  | 5 |  | 
24 | COc1ccc(CC2(C(=O)N[C@@H](Cc3ccc(NC(=O)c4c(Cl)cccc4Cl)cc3)C(=O)O)CCCC2)cc1 [Example 43, 4-[[(2,6-Dichlorophenyl)carbonyl]amino]-N-[[1-[(4-methoxyphenyl)methyl]cyclopentyl]carbonyl]-L-phenylalanine] | 36.5 |  | 0.63 |  | 
25 | O=C(NCCC1(C(=O)N[C@@H](Cc2ccc(NC(=O)c3c(Cl)cccc3Cl)cc2)C(=O)O)CCCC1)c1ccncc1 [Example 160] |  |  |  |  | IC50 [1]: 328 nM; IC50 [2]: 5.8 nM
26 | O=C(Nc1ccc(C[C@H](NC(=O)C2(CCCCO)CCCC2)C(=O)O)cc1)c1c(Cl)cccc1Cl [Example 255] |  | 0.5 |  | 27 | 
27 | Cn1nnnc1-c1ccc(CC2(C(=O)N[C@@H](Cc3ccc(NC(=O)c4c(Cl)cccc4Cl)cc3)C(=O)O)CCC2)cc1 [Example 57] |  | 0.42 |  | 27 | 
28 | Cn1nnnc1-c1cccc(CC2(C(=O)N[C@@H](Cc3ccc(NC(=O)c4c(Cl)cccc4Cl)cc3)C(=O)O)CCC2)c1 [Example 56] | 31.5 |  | 0.94 |  | 
29 | COCCCCC1(C(=O)N[C@@H](Cc2ccc(NC(=O)c3c(Cl)cccc3Cl)cc2)C(=O)O)CCCC1 [Example 250] | 28 | 0.32 |  |  | 
30 | COC(=O)NCCC1(C(=O)N[C@@H](Cc2ccc(NC(=O)c3c(Cl)cccc3Cl)cc2)C(=O)O)CCCC1 [Example 193] | 40 |  | 0.55 |  | 
31 | O=C(Nc1ccc(C[C@H](NC(=O)C2(CCN3CCOCC3)CCCC2)C(=O)O)cc1)c1c(Cl)cccc1Cl [Example 256] |  | 2.4 |  | 151 | 
